# According to PubChem BioAssay AID1963960 (Molecular Pharmacology Branch, DTP, NCI, 2024):
# Test system: MDA-MB-468 spheroids with HUVEC/MSC, viability
# Experiment: Anticancer human tumor MDA-MB-468 cell line growth inhibition [PI3K];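 note: spheroids exposed to agents for seven days before readout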;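 for viability, T/C: 100% = DMSO vehicle control viability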
# Settings: for IC50: curve of first compound; for viability, T/C: stronger effect = lower value
# Description: Combinatorial screen of targeted agents with the PI3K inhibitors inavolisib, alpelisib, duvelisib, and copanlisib in multi-cell type tumor spheroids
# A high-throughput screen of multi-cell type tumor spheroids was designed to identify active combinations of targeted small molecules and PI3K pathway inhibitors. Complex spheroids include a stromal component modeled by human endothelial cells (HUVEC) and fibroblasts modeled by human mesenchymal stem cells (MSCs). The concentration ranges selected for each drug and investigational agent were based upon clinically achievable concentrations if the clinical Cmax of the agent was known.
# Compounds. The drugs and investigational agents: inavolisib (NSC800729), alpelisib (NSC765974), duvelisib (NSC772469), copanlisib (NSC816437), ipatasertib (NSC767898), afuresertib (NSC778305), talazoparib (NSC767125), sapanisertib (NSC764658), selumetinib (NSC741078), tovorafenib (DAY101, NSC766906), vemurafenib (NSC761431), ravoxertinib (NSC781343), sotorasib (NSC818433), MRTX1133 (NSC 836407), abemaciclib (NSC 768073), palbociclib (NSC758247), venetoclax (NSC 766270), SY5609 (NSC837396), enzalutamide (NSC755605), and darolutamide (NSC825331), were obtained from the National Cancer Institute (NCI) Developmental Therapeutics Program Chemical Repository. The FDA-approved anticancer drug set is available from the NCI Developmental Therapeutics Program. […] The stock solutions were prepared in dimethyl sulfoxide (DMSO, Sigma-Aldrich, St. Louis, MO, cat. D2650) at 800-fold the tested concentration and stored at -70 degrees C prior to their use. All drugs and investigational agents were tested over a range starting from a high concentration at or near the clinical Cmax and decreasing in half-log increments. If the clinical Cmax for an agent had not been determined, the highest concentration tested was 10 microM.
# Cell Culture. All cells were maintained in an incubator at 37 degrees C and 5% CO2 with 95% humidity. The PDC lines were cultured according to standard operating procedures established by the NCI PDMR (https://pdmr.cancer.gov/sops/default.htm). All PDCs were thawed and cultured in Matrigel-coated flasks prepared with a working solution of 1X Ham's F-12 nutrient mix, without supplementation (Invitrogen, Waltham, MA, cat. 11765054), 100 U/mL penicillin-streptomycin (Invitrogen, cat. 15140122), and 2.5% Matrigel (Corning Inc., Corning, NY, cat. 354248) for the first three passages. The 354836-022-R-J1-PDC, 475296-252-R-J1-PDC, and 997726-040-R-J2-PDC lines were cultured in 6A media, which includes advanced DMEM/F-12 (Thermo Fisher Scientific, cat. 12634028), 10 mM HEPES (Thermo Fisher Scientific, cat. 15630080), 1X GlutaMAX supplement (Thermo Fisher Scientific, cat. 35050061), 0.1 mg/mL primocin (InvivoGen, San Diego, CA, cat. ant-pm-2), 10% defined fetal bovine serum, heat inactivated (HyClone Laboratories Inc., Logan, UT, cat. SH30070.03HI), 50% L-WRN conditioned media (ATCC, cat. CRL-3276), 1.25 mM N-Acetyl-L-cysteine (Sigma-Aldrich, cat. A9165), 10 mM nicotinamide (Sigma-Aldrich, cat. N0636), 1X B-27 supplement (Thermo Fisher Scientific, cat. 17504044), 1X N-2 supplement (Thermo Fisher Scientific, cat. 17502048), and 10 microM Y-27632 dihydrochloride (Tocris Bioscience, Bristol, United Kingdom, cat. 1254). The 624824-186-R-J2-PDC line was cultured in 6C/Colon 1B media, which includes all 6A media components plus 50 ng/mL human EGF recombinant protein (Thermo Fisher Scientific, cat. PHG0311). […]
# [1] = second compound 0.0316 µM, first compound 0.000316 µM
# [2] = second compound 0.0316 µM, first compound 0.001 µM
# [3] = second compound 0.0316 µM, first compound 0.00316 µM
# [4] = second compound 0.0316 µM, first compound 0.01 µM
# [5] = second compound 0.0316 µM, first compound 0.0316 µM
# [6] = second compound 0.0316 µM, first compound 0.1 µM
# [7] = second compound 0.1 µM, first compound 0.000316 µM
# [8] = second compound 0.1 µM, first compound 0.001 µM
# [9] = second compound 0.1 µM, first compound 0.00316 µM
# [10] = second compound 0.1 µM, first compound 0.01 µM
# [11] = second compound 0.1 µM, first compound 0.0316 µM
# [12] = second compound 0.1 µM, first compound 0.1 µM
# [13] = second compound 0.316 µM, first compound 0.000316 µM
# [14] = second compound 0.316 µM, first compound 0.001 µM
# [15] = second compound 0.316 µM, first compound 0.00316 µM
# [16] = second compound 0.316 µM, first compound 0.01 µM
# [17] = second compound 0.316 µM, first compound 0.0316 µM
# [18] = second compound 0.316 µM, first compound 0.1 µM
# [19] = second compound 1 µM, first compound 0.000316 µM
# [20] = second compound 1 µM, first compound 0.001 µM
# [21] = second compound 1 µM, first compound 0.00316 µM
# [22] = second compound 1 µM, first compound 0.01 µM
# [23] = second compound 1 µM, first compound 0.0316 µM
# [24] = second compound 1 µM, first compound 0.1 µM
# [25] = second compound 3.16 µM, first compound 0.000316 µM
# [26] = second compound 3.16 µM, first compound 0.001 µM
# [27] = second compound 3.16 µM, first compound 0.00316 µM
# [28] = second compound 3.16 µM, first compound 0.01 µM
# [29] = second compound 3.16 µM, first compound 0.0316 µM
# [30] = second compound 3.16 µM, first compound 0.1 µM
# [31] = second compound 10 µM, first compound 0.000316 µM
# [32] = second compound 10 µM, first compound 0.001 µM
# [33] = second compound 10 µM, first compound 0.00316 µM
# [34] = second compound 10 µM, first compound 0.01 µM
# [35] = second compound 10 µM, first compound 0.0316 µM
# [36] = second compound 10 µM, first compound 0.1 µM
compound,measurement,setting,value
Cn1ncnc1[C@H]1c2n[nH]c(=O)c3cc(F)cc(c23)N[C@@H]1c1ccc(F)cc1 + CC(Nc1ncnc2nc[nH]c12)c1cc2cccc(Cl)c2c(=O)n1-c1ccccc1,IC50,second compound 0.0316 µM,> 100 nM
same,IC50,second compound 0.1 µM,> 100 nM
same,IC50,second compound 0.316 µM,96.2 nM
same,IC50,second compound 1 µM,72.5 nM
same,IC50,second compound 3.16 µM,37 nM
same,IC50,second compound 10 µM,< 0.316 nM
same,"viability, T/C",[1],84.5%
same,"viability, T/C",[2],90.7%
same,"viability, T/C",[3],86.9%
same,"viability, T/C",[4],78.1%
same,"viability, T/C",[5],68.1%
same,"viability, T/C",[6],51.2%
same,"viability, T/C",[7],78.3%
same,"viability, T/C",[8],95.1%
same,"viability, T/C",[9],85%
same,"viability, T/C",[10],66%
same,"viability, T/C",[11],65.3%
same,"viability, T/C",[12],51.7%
same,"viability, T/C",[13],73.2%
same,"viability, T/C",[14],74.5%
same,"viability, T/C",[15],73%
same,"viability, T/C",[16],69.9%
same,"viability, T/C",[17],64%
same,"viability, T/C",[18],49.5%
same,"viability, T/C",[19],59.3%
same,"viability, T/C",[20],74%
same,"viability, T/C",[21],60.1%
same,"viability, T/C",[22],64.5%
same,"viability, T/C",[23],57.8%
same,"viability, T/C",[24],46.8%
same,"viability, T/C",[25],55.5%
same,"viability, T/C",[26],52.1%
same,"viability, T/C",[27],53.4%
same,"viability, T/C",[28],52.8%
same,"viability, T/C",[29],51.9%
same,"viability, T/C",[30],38.7%
same,"viability, T/C",[31],39.4%
same,"viability, T/C",[32],37.8%
same,"viability, T/C",[33],40.6%
same,"viability, T/C",[34],36.9%
same,"viability, T/C",[35],35.2%
same,"viability, T/C",[36],26.9%
CCCS(=O)(=O)Nc1ccc(F)c(C(=O)c2c[nH]c3ncc(-c4ccc(Cl)cc4)cc23)c1F + CC(Nc1ccc2c(c1)OCCn1cc(N3C(=O)OCC3C(F)F)nc1-2)C(N)=O,IC50,second compound 0.00316 µM,5330 nM
same,IC50,second compound 0.01 µM,5160 nM
same,IC50,second compound 0.0316 µM,5070 nM
same,IC50,second compound 0.1 µM,4530 nM
same,IC50,second compound 0.316 µM,3620 nM
same,IC50,second compound 1 µM,3720 nM
same,"viability, T/C","second compound 0.00316 µM, first compound 0.0316 µM",89.1%
same,"viability, T/C","second compound 0.00316 µM, first compound 0.1 µM",114%
same,"viability, T/C","second compound 0.00316 µM, first compound 0.316 µM",100%
same,"viability, T/C","second compound 0.00316 µM, first compound 1 µM",94.4%
same,"viability, T/C","second compound 0.00316 µM, first compound 3.16 µM",78.9%
same,"viability, T/C","second compound 0.00316 µM, first compound 10 µM",15.6%
same,"viability, T/C","second compound 0.01 µM, first compound 0.0316 µM",101%
same,"viability, T/C","second compound 0.01 µM, first compound 0.1 µM",90%
same,"viability, T/C","second compound 0.01 µM, first compound 0.316 µM",90.6%
same,"viability, T/C","second compound 0.01 µM, first compound 1 µM",104%
same,"viability, T/C","second compound 0.01 µM, first compound 3.16 µM",74.8%
same,"viability, T/C","second compound 0.01 µM, first compound 10 µM",16.4%
same,"viability, T/C",[5],106%
same,"viability, T/C",[6],98.7%
same,"viability, T/C","second compound 0.0316 µM, first compound 0.316 µM",86.8%
same,"viability, T/C","second compound 0.0316 µM, first compound 1 µM",103%
same,"viability, T/C","second compound 0.0316 µM, first compound 3.16 µM",74.8%
same,"viability, T/C","second compound 0.0316 µM, first compound 10 µM",14.2%
same,"viability, T/C",[11],95.4%
same,"viability, T/C",[12],90.6%
same,"viability, T/C","second compound 0.1 µM, first compound 0.316 µM",85.6%
same,"viability, T/C","second compound 0.1 µM, first compound 1 µM",94.5%
same,"viability, T/C","second compound 0.1 µM, first compound 3.16 µM",66.2%
same,"viability, T/C","second compound 0.1 µM, first compound 10 µM",14.5%
same,"viability, T/C",[17],95.6%
same,"viability, T/C",[18],89.1%
same,"viability, T/C","second compound 0.316 µM, first compound 0.316 µM",79.2%
same,"viability, T/C","second compound 0.316 µM, first compound 1 µM",94.1%
same,"viability, T/C","second compound 0.316 µM, first compound 3.16 µM",55%
same,"viability, T/C","second compound 0.316 µM, first compound 10 µM",12.1%
same,"viability, T/C",[23],85.3%
same,"viability, T/C",[24],88.3%
same,"viability, T/C","second compound 1 µM, first compound 0.316 µM",78.7%
same,"viability, T/C","second compound 1 µM, first compound 1 µM",67.2%
same,"viability, T/C","second compound 1 µM, first compound 3.16 µM",61.4%
same,"viability, T/C","second compound 1 µM, first compound 10 µM",11%
Cn1ncnc1[C@H]1c2n[nH]c(=O)c3cc(F)cc(c23)N[C@@H]1c1ccc(F)cc1 + Cc1nc(NC(=O)N2CCCC2C(N)=O)sc1-c1ccnc(C(C)(C)C(F)(F)F)c1,IC50,second compound 0.0316 µM,> 100 nM
same,IC50,second compound 0.1 µM,66.5 nM
same,IC50,second compound 0.316 µM,42.9 nM
same,IC50,second compound 1 µM,24.4 nM
same,IC50,second compound 3.16 µM,4.2 nM
same,IC50,second compound 10 µM,< 0.316 nM
same,"viability, T/C",[1],88.3%
same,"viability, T/C",[2],79.8%
same,"viability, T/C",[3],84.7%
same,"viability, T/C",[4],98.3%
same,"viability, T/C",[5],84%
same,"viability, T/C",[6],56.3%
same,"viability, T/C",[7],80.2%
same,"viability, T/C",[8],93.7%
same,"viability, T/C",[9],81.9%
same,"viability, T/C",[10],93%
same,"viability, T/C",[11],62.7%
same,"viability, T/C",[12],43%
same,"viability, T/C",[13],88%
same,"viability, T/C",[14],76.6%
same,"viability, T/C",[15],83.7%
same,"viability, T/C",[16],79.6%
same,"viability, T/C",[17],52.5%
same,"viability, T/C",[18],43%
same,"viability, T/C",[19],94.2%
same,"viability, T/C",[20],78%
same,"viability, T/C",[21],62.9%
same,"viability, T/C",[22],62%
same,"viability, T/C",[23],46.1%
same,"viability, T/C",[24],41.4%
same,"viability, T/C",[25],64.7%
same,"viability, T/C",[26],60%
same,"viability, T/C",[27],50.4%
same,"viability, T/C",[28],46.7%
same,"viability, T/C",[29],37.6%
same,"viability, T/C",[30],36.2%
same,"viability, T/C",[31],35.2%
same,"viability, T/C",[32],25.9%
same,"viability, T/C",[33],31.2%
same,"viability, T/C",[34],26.9%
same,"viability, T/C",[35],20.3%
same,"viability, T/C",[36],18.5%
